# System: primary human T-cells
# Assay: Cytokine secretion on protein level in activated primary human T-cells (13-plex FACS / Luminex, supernatant)
# Assay type: cell-based
# Procedure, shortened: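 First, T-cells are isolated from healthy donors' blood. Next, they and HaCaT keratinocytes are activated for 48 h with PMA/Ionomycin or IFN-γ in the presence of tripeptides. Finally, secreted cytokines are quantified in supernatants by 13-plex FACS at 48 and 72 h.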
# [1] = primary human T-cells stimulated with IFN-γ, 10^−9M
# [2] = primary human T-cells stimulated with IFN-γ, substance 10^−9M
# [3] = primary human T-cells stimulated with PBS, 10^−9M
# [4] = primary human T-cells stimulated with PBS, substance 10^−9M
# [5] = primary human T-cells stimulated with PMA/Ionomycin, 10^−9M
# [6] = primary human T-cells stimulated with PMA/Ionomycin, substance 10^−9M
substance,measurement,setting,value
"alpha-melanocyte-stimulating hormone [α-MSH, reference compound]",IL-1 cytokine concentration,[1],229 pg/mL
same,IL-2 cytokine concentration,[1],0 pg/mL
same,IL-4 cytokine concentration,[1],136.29 pg/mL
same,IL-5 cytokine concentration,[1],145.89 pg/mL
same,IL-6 cytokine concentration,[1],70.19 pg/mL
same,IL-9 cytokine concentration,[1],90.3 pg/mL
same,IL-10 cytokine concentration,[1],109.15 pg/mL
same,IL-12p70 cytokine concentration,[1],727.17 pg/mL
same,IL-13 cytokine concentration,[1],59.46 pg/mL
same,IL-17 cytokine concentration,[1],125.8 pg/mL
same,IL-22 cytokine concentration,[1],0 pg/mL
same,TNF-α cytokine concentration,[1],155.15 pg/mL
same,IL-1 cytokine concentration,[2],0 pg/mL
same,IL-2 cytokine concentration,[2],0 pg/mL
same,IL-4 cytokine concentration,[2],60.49 pg/mL
same,IL-5 cytokine concentration,[2],0 pg/mL
same,IL-6 cytokine concentration,[2],64.54 pg/mL
same,IL-9 cytokine concentration,[2],5.27 pg/mL
same,IL-10 cytokine concentration,[2],43.9 pg/mL
same,IL-12 cytokine concentration,[2],0 pg/mL
same,IL-12p70 cytokine concentration,[2],0 pg/mL
same,IL-13 cytokine concentration,[2],0 pg/mL
same,IL-17 cytokine concentration,[2],0 pg/mL
same,IL-22 cytokine concentration,[2],0 pg/mL
same,TNF-α cytokine concentration,[2],18.85 pg/mL
same,IFN-γ cytokine concentration,[3],584.13 pg/mL
same,IL-1 cytokine concentration,[3],233.71 pg/mL
same,IL-2 cytokine concentration,[3],166.83 pg/mL
same,IL-4 cytokine concentration,[3],158.58 pg/mL
same,IL-5 cytokine concentration,[3],26.63 pg/mL
same,IL-6 cytokine concentration,[3],103.97 pg/mL
same,IL-9 cytokine concentration,[3],93.72 pg/mL
same,IL-10 cytokine concentration,[3],154.89 pg/mL
same,IL-12p70 cytokine concentration,[3],100.99 pg/mL
same,IL-13 cytokine concentration,[3],74.71 pg/mL
same,IL-17 cytokine concentration,[3],123.27 pg/mL
same,IL-22 cytokine concentration,[3],2258.05 pg/mL
same,TNF-α cytokine concentration,[3],127.96 pg/mL
same,IFN-γ cytokine concentration,[4],0 pg/mL
same,IL-1 cytokine concentration,[4],0 pg/mL
same,IL-2 cytokine concentration,[4],139.68 pg/mL
same,IL-4 cytokine concentration,[4],72.42 pg/mL
same,IL-5 cytokine concentration,[4],14.37 pg/mL
same,IL-6 cytokine concentration,[4],117.88 pg/mL
same,IL-9 cytokine concentration,[4],34.99 pg/mL
same,IL-10 cytokine concentration,[4],164.01 pg/mL
same,IL-12 cytokine concentration,[4],0 pg/mL
same,IL-12p70 cytokine concentration,[4],0 pg/mL
same,IL-13 cytokine concentration,[4],185.71 pg/mL
same,IL-17 cytokine concentration,[4],139.74 pg/mL
same,IL-22 cytokine concentration,[4],0 pg/mL
same,INF-α cytokine concentration,[4],0 pg/mL
same,TNF-a cytokine concentration,[4],59.06 pg/mL
same,TNF-α cytokine concentration,[4],59.06 pg/mL
same,IFN-γ cytokine concentration,[5],1049.41 pg/mL
same,IL-1 cytokine concentration,[5],69689.2 pg/mL
same,IL-2 cytokine concentration,[5],12000 pg/mL
same,IL-4 cytokine concentration,[5],200.9 pg/mL
same,IL-5 cytokine concentration,[5],145.89 pg/mL
same,IL-6 cytokine concentration,[5],1542.01 pg/mL
same,IL-9 cytokine concentration,[5],187.5 pg/mL
same,IL-10 cytokine concentration,[5],4311.06 pg/mL
same,IL-12p70 cytokine concentration,[5],1161.04 pg/mL
same,IL-13 cytokine concentration,[5],462.62 pg/mL
same,IL-17 cytokine concentration,[5],2836.14 pg/mL
same,IL-22 cytokine concentration,[5],24400.4 pg/mL
same,TNF-α cytokine concentration,[5],3600 pg/mL
same,IFN-γ cytokine concentration,[6],10814.4 pg/mL
same,IL-1 cytokine concentration,[6],530.55 pg/mL
same,IL-2 cytokine concentration,[6],2307.5 pg/mL
same,IL-4 cytokine concentration,[6],70.32 pg/mL
same,IL-5 cytokine concentration,[6],278.92 pg/mL
same,IL-6 cytokine concentration,[6],1241.17 pg/mL
same,IL-9 cytokine concentration,[6],264.59 pg/mL
same,IL-10 cytokine concentration,[6],977.83 pg/mL
same,IL-12 cytokine concentration,[6],0 pg/mL
same,IL-12p70 cytokine concentration,[6],0 pg/mL
same,IL-13 cytokine concentration,[6],1065.69 pg/mL
same,IL-17 cytokine concentration,[6],1660.92 pg/mL
same,IL-22 cytokine concentration,[6],0 pg/mL
same,INF-α cytokine concentration,[6],10814.35 pg/mL
same,TNF-a cytokine concentration,[6],3346.46 pg/mL
same,TNF-α cytokine concentration,[6],3346.46 pg/mL

# — patent US10954269B2, “Anti-inflammatory tripeptides” (Dr. August Wolff Gmbh & Co. KG Arzneimittel, priority 2013, dated 2021)
